Two compounds from patent US20200216316A1, “METHOD FOR THE MANUFACTURE OF CYCLODODECASULFUR” (EASTMAN CHEMICAL COMPANY, priority 2016, published 2020) can be followed below.

The nature of data set [1]: Solubility of sulfur species in p-xylene, chlorobenzene and carbon disulfide (sulfur content of equilibrated supernatant by Uniquant). The format is physicochemical. As to the method: Fifty grams of p-xylene was added to each of three identical 100-milliliter jacketed glass vessels fitted with a circulating heating bath, cooling water condenser, magnetic stir bar and stir plate, and nitrogen purge. All vessels were heated to the desired temperature, and cyclooctasulfur, cyclododecasulfur (prepared as in Example 2), and unoiled commercial crystalline polymeric sulfur (Crystex™) was added in sufficient quantities to each of the glass vessels to allow undissolved solids to remain after dissolution and equilibration of the mixture. The equilibration period typically lasted 2 to 8 hours, during which the contents of the vessel were maintained at the desired temperature and stirred continuously. Upon equilibration, supernatant liquid was withdrawn from the vessels via a heated fritted glass pipette (heated to the same temperature as the solution). The supernatants were analyzed by Uniquant to determine sulfur content, indicating the solubility of the sulfur species at the vessel temperature. Similar experiments were conducted for carbon disulfide and chlorobenzene for each of the three solutes.

Data set [2] can be described thus: Thermal decomposition in p-xylene at 115° C. (sulfur content of supernatant by Uniquant). The format is physicochemical. Particulars: for Content of sulfur in the p-xylene solvent: 115° C. How it is done: The purpose of this experiment was to determine the rate that polymeric sulfur thermally decomposes into cyclooctasulfur in p-xylene. Polymeric sulfur is essentially insoluble in p-xylene, except when the polymer decomposes into cyclooctasulfur. Thus, the sulfur content in the p-xylene is a measure of the amount of polymeric sulfur that has decomposed to cyclooctasulfur. In this experiment, 50.32 grams of p-xylene were added to a 100-milliliter jacketed glass vessels fitted with a circulating heating bath, cooling water condenser, magnetic stir bar and stir plate, and nitrogen purge. The p-xylene was heated to 115° C. and 2.03 grams of unoiled commercial crystalline polymeric sulfur (Crystex™) was added while stirring. Periodically samples of the supernatant liquid were withdrawn from the vessel via a heated fritted glass pipette (heated to the same temperature as the solution). These supernatant samples were analyzed by Uniquant to determine sulfur content. The sulfur content was used to calculate the amount of polymeric sulfur remaining undissolved and undecomposed to cyclooctasulfur. After 60 and 75 minutes at 115° C., about 85% and essentially 100% respectively, of the polymeric sulfur had been converted into cyclooctasulfur.
The equipment and procedure used in Example 22 for measurement of the decomposition of polymeric sulfur was used to measure the decomposition of cyclododecasulfur in para-xylene. Two grams of purified cyclododecasulfur (produced by a procedure in the fashion of Example 2) was heated and stirred in 50.0 grams of p-xylene in a 100-milliliter jacketed glass vessels fitted with a circulating heating bath, cooling water condenser, magnetic stir bar and stir plate, and nitrogen purge. After 60, 75, and 120 minutes at 115° C., the content of sulfur in the p-xylene solvent was found by Uniquant to be about 0.4 wt % in each case, similar to the solubility of cyclododecasulfur in p-xylene at 115° C. (see Example 21). Upon cooling of the p-xylene, filtration, and drying of the recovered solids overnight in a vacuum oven at room temperature and 0.067 MPa (absolute), greater than 97% of the cyclododecasulfur input weight of solids was recovered.

As for `S1SSSSSSSSSSS1` [Cyclododecasulfur, cyclododecasulfur], the “Solubility in weight % of solute in solvent” value in data set [1] (CS2, 22 ° C.) was 0.2 wt %; in data set [1] (CS2, 45 ° C.) it was 0.5 wt %; in data set [1] (Cl-benzene, 45 ° C.), 0.015 wt %; in data set [1] (Cl-benzene, 115 ° C.), 0.44 wt %; in data set [1] (P-xylene, 45 ° C.), under 0.05 wt %; in data set [1] (P-xylene, 115 ° C.) it was 0.4 wt %. In addition, in data set [2] (after 120 minutes at 115° C. in p-xylene, cooling, filtration and drying), the “Input weight of solids recovered after heating” value is “greater than 97%”. Moreover, the “Fraction decomposed/converted to cyclooctasulfur” value in data set [2] (mixture of polymeric sulfur and cyclododecasulfur in p-xylene at 115° C. for two hours) was “less than 3%”. In addition, the “Content of sulfur in the p-xylene solvent” value in data set [2] (60 minutes), in data set [2] (75 minutes) and in data set [2] (120 minutes) was “about 0.4 wt %” each time.
Regarding `S1SSSSSSS1` [Cyclooctasulfur, cyclooctasulfur, reference compound], the “Solubility in weight % of solute in solvent” value in data set [1] (CS2, 22 ° C.) came out at 32 wt %; in data set [1] (CS2, 45 ° C.), 48 wt %; in data set [1] (Cl-benzene, 22 ° C.), 2.4 wt %; in data set [1] (Cl-benzene, 45 ° C.) it was 6.2 wt %; in data set [1] (P-xylene, 22 ° C.) it was 2.3 wt %; in data set [1] (P-xylene, 45 ° C.) it was 5.6 wt %.
